What is called IC50 is the concentration at which inhibition is half-maximal.

Results on eight compounds are retold here after ChEMBL document CHEMBL3797044, “Computer-aided design, synthesis, and biological evaluation of new indole-2-carboxamide derivatives as PI3Kα/EGFR inhibitors” (Bioorg Med Chem Lett, 2016).

The test system of test [1] is MDA-MB-231. Kind of test: Induction of apoptosis in human MDA231 assessed as increase in caspase-3 activity at 120 uM incubated for 48 hrs followed by DEVD-pNA substrate addition by caspase-3 colorimetric assay. The format is functional.
The subject of test [2] is K562. Kind of test: Cytotoxicity against human K562 cells assessed as growth inhibition after 24 hrs by MTT assay. The format is functional, cell-based. Particulars: K562, 24 h.
Test [3] relates to HCT-116. Kind of test: Induction of apoptosis in human HCT116 assessed as increase in caspase-3 activity at 120 uM incubated for 48 hrs followed by DEVD-pNA substrate addition by caspase-3 colorimetric assay. The format is functional.

Active and inactive are the calls of the source. No cut-off for these calls is given here.

Regarding `O=C(Nc1cccc(C(O)c2ccccc2)c1)c1cc2ccccc2[nH]1` (stereo not given), the result in test [1] and in test [3] was Active. For the same compound, the IC50 in test [2] was greater than 100 µM.

Turning to `CC(O)c1cccc(NC(=O)c2cc3ccccc3[nH]2)c1` (stereo not given), in test [2], the half-inhibitory concentration (IC50) was greater than 100 µM.

Consider `CC(O)c1ccc(NC(=O)c2cc3ccccc3[nH]2)cc1` (stereo not given), for which the 50% inhibitory concentration (IC50) in test [2] was greater than 100 µM.

In the case of `O=C(c1ccccc1)c1cccc(NC(=O)c2cc3ccccc3[nH]2)c1`, in test [2], the IC50 is greater than 100 µM.

On to `O=C(c1ccccc1)c1ccc(NC(=O)c2cc3ccccc3[nH]2)cc1`, for which, in test [2], the concentration for half-maximal inhibition (IC50) is greater than 100 µM.

For `CC(=O)c1ccc(NC(=O)c2cc3ccccc3[nH]2)cc1`, the half-maximal inhibitory concentration (IC50) in test [2] was greater than 100 µM.

For the compound `CC(=O)c1cccc(NC(=O)c2cc3ccccc3[nH]2)c1`, the IC50 in test [2] was greater than 100 µM.

Regarding `O=C(Nc1ccc(C(O)c2ccccc2)cc1)c1cc2ccccc2[nH]1` (stereo not given), the IC50 in test [2] is greater than 100 µM.
